# In ChEMBL document CHEMBL3745710, “Synthesis, antibacterial and anti-MRSA activity, in vivo toxicity and a structure-activity relationship study of a quinoline thiourea” (Bioorg Med Chem Lett, 2016):
# Activity calls are given as the source filed them. No cut-off for these calls is given here.
# How the values were obtained:
# Escherichia coli = experiment: Antibacterial activity against Escherichia coli NCIMB 9485 after 24 hrs by serial dilution method; format: functional; settings: for MIC90 / MIC50 / MIC80: NCIMB 9485, 24 h
# Staphylococcus aureus [1] = experiment: Antibacterial activity against Staphylococcus aureus NCIMB 12702 after 24 hrs by serial dilution method; format: functional; settings: for MIC90 / MIC50 / MIC80: Staphylococcus aureus, NCIMB 12702, 24 h
# Pseudomonas aeruginosa = experiment: Antibacterial activity against Pseudomonas aeruginosa ATCC 10145 after 24 hrs by serial dilution method; format: functional, organism-based
# Staphylococcus aureus [2] = experiment: Antibacterial activity against methicillin-resistant Staphylococcus aureus after 24 hrs by serial dilution method; format: functional
# [3] = Toxicity in sixth development stage of Galleria mellonella larvae assessed as survival rate at 100 ug/ml after 24 hrs; format: organism-based; settings: in vivo
# [4] = Toxicity in sixth development stage of Galleria mellonella larvae assessed as survival rate at 10 ug/ml after 48 hrs; format: organism-based; settings: in vivo
# Galleria mellonella = experiment: Toxicity in sixth development stage of Galleria mellonella larvae assessed as larvae pupation at 1 to 1000 ug/ml after 7 days relative to control; format: organism-based; settings: in vivo, 168 h
# [5] = Toxicity in sixth development stage of Galleria mellonella larvae assessed as survival rate at 1000 ug/ml after 48 hrs; format: organism-based; settings: in vivo
# [6] = Toxicity in sixth development stage of Galleria mellonella larvae assessed as survival rate at 1000 ug/ml after 24 hrs; format: organism-based; settings: in vivo
# [7] = Toxicity in sixth development stage of Galleria mellonella larvae assessed as survival rate at 1 ug/ml after 72 hrs; format: organism-based; settings: in vivo
# [8] = Toxicity in sixth development stage of Galleria mellonella larvae assessed as survival rate at 50 ug/ml after 72 hrs; format: organism-based; settings: in vivo
# [9] = Toxicity in sixth development stage of Galleria mellonella larvae assessed as survival rate at 10 ug/ml after 24 hrs; format: organism-based; settings: in vivo
# [10] = Toxicity in sixth development stage of Galleria mellonella larvae assessed as survival rate at 10 ug/ml after 72 hrs; format: organism-based; settings: in vivo
# [11] = Toxicity in sixth development stage of Galleria mellonella larvae assessed as survival rate at 1 ug/ml after 48 hrs; format: organism-based; settings: in vivo
# [12] = Toxicity in sixth development stage of Galleria mellonella larvae assessed as survival rate at 100 ug/ml after 48 hrs; format: organism-based; settings: in vivo
# [13] = Toxicity in sixth development stage of Galleria mellonella larvae assessed as survival rate at 1000 ug/ml after 72 hrs; format: organism-based; settings: in vivo
# [14] = Toxicity in sixth development stage of Galleria mellonella larvae assessed as survival rate at 1 ug/ml after 24 hrs; format: organism-based; settings: in vivo
# [15] = Toxicity in sixth development stage of Galleria mellonella larvae assessed as survival rate at 50 ug/ml after 24 hrs; format: organism-based; settings: in vivo
# [16] = Toxicity in sixth development stage of Galleria mellonella larvae assessed as survival rate at 50 ug/ml after 48 hrs; format: organism-based; settings: in vivo
# [17] = Toxicity in sixth development stage of Galleria mellonella larvae assessed as survival rate at 100 ug/ml after 72 hrs; format: organism-based; settings: in vivo
compound,measurement,setting,value
CNC(=S)Nc1cc(C(F)(F)F)cc(C(F)(F)F)c1,MIC,Escherichia coli,inactive
same,MIC,Staphylococcus aureus [1],inactive
same,MIC,Pseudomonas aeruginosa,inactive
C=CC1CN2CCC1CC2[C@H](OCc1ccccc1)c1ccnc2ccc(OC)cc12 (some centres undefined),MIC90,Escherichia coli,> 200 µM
same,MIC90,Staphylococcus aureus [1],> 200 µM
same,MIC,Pseudomonas aeruginosa,inactive
CN[C@@H](CC(C)C)C(=O)N[C@H]1C(=O)N[C@@H](CC(N)=O)C(=O)N[C@H]2C(=O)N[C@H]3C(=O)N[C@H](C(=O)N[C@@H](C(=O)O)c4cc(O)cc(O)c4-c4cc3ccc4O)[C@H](O)c3ccc(c(Cl)c3)Oc3cc2cc(c3O[C@H]2O[C@@H](CO)[C@H](O)[C@@H](O)[C@@H]2O[C@@H]2C[C@@](C)(N)[C@@H](O)[C@@H](C)O2)Oc2ccc(cc2Cl)[C@H]1O,MIC90,Staphylococcus aureus [2],1.35 µM
FC(F)(F)c1cc(NC(=S)NC2CCCCC2)cc(C(F)(F)F)c1,MIC50,Escherichia coli,101 µM
same,MIC90,Escherichia coli,> 270 µM
same,MIC50,Staphylococcus aureus [1],135 µM
same,MIC90,Staphylococcus aureus [1],> 270 µM
same,MIC,Pseudomonas aeruginosa,inactive
FC(F)(F)c1cc(NC(=S)Nc2ccccc2)cc(C(F)(F)F)c1,survival at 24 h,[3],100%
same,survival at 48 h,[4],100%
same,Activity,Galleria mellonella,Non-toxic
same,survival at 48 h,[5],100%
same,survival at 24 h,[6],100%
same,survival at 72 h,[7],100%
same,MIC50,Escherichia coli,51.5 µM
same,MIC80,Escherichia coli,103 µM
same,MIC90,Escherichia coli,206 µM
same,survival at 72 h,[8],100%
same,survival at 24 h,[9],100%
same,survival at 72 h,[10],100%
same,survival at 48 h,[11],100%
same,survival at 48 h,[12],100%
same,MIC50,Staphylococcus aureus [1],> 275 µM
same,MIC80,Staphylococcus aureus [1],> 275 µM
same,MIC90,Staphylococcus aureus [1],> 275 µM
same,MIC,Pseudomonas aeruginosa,inactive
same,survival at 72 h,[13],100%
same,survival at 24 h,[14],100%
same,survival at 24 h,[15],100%
same,survival at 48 h,[16],100%
same,survival at 72 h,[17],100%
C=C[C@H]1CN2CC[C@H]1C[C@H]2[C@@H](NC(=S)Nc1cc(C(F)(F)F)cc(C(F)(F)F)c1)c1ccnc2ccccc12,survival at 24 h,[3],100%
same,MIC50,Staphylococcus aureus [2],10.8 µM
same,MIC90,Staphylococcus aureus [2],18.1 µM
same,survival at 48 h,[4],100%
same,Activity,Galleria mellonella,Non-toxic
same,survival at 48 h,[5],100%
same,survival at 24 h,[6],100%
same,survival at 72 h,[7],100%
same,MIC50,Escherichia coli,5.54 µM
same,MIC90,Escherichia coli,8.32 µM
same,survival at 72 h,[8],100%
same,survival at 24 h,[9],100%
same,survival at 72 h,[10],100%
same,survival at 48 h,[11],100%
same,survival at 48 h,[12],100%
same,MIC50,Staphylococcus aureus [1],8.32 µM
same,MIC90,Staphylococcus aureus [1],16.6 µM
same,MIC,Pseudomonas aeruginosa,inactive
same,survival at 72 h,[13],100%
same,survival at 24 h,[14],100%
same,survival at 24 h,[15],100%
same,survival at 48 h,[16],100%
same,survival at 72 h,[17],100%
C=C[C@H]1CN2CC[C@H]1C[C@H]2[C@@H](NC(=S)Nc1cc(C(F)(F)F)cc(C(F)(F)F)c1)c1ccnc2ccc(OC)cc12,survival at 24 h,[3],100%
same,MIC50,Staphylococcus aureus [2],11.4 µM
same,MIC90,Staphylococcus aureus [2],17.7 µM
same,survival at 48 h,[4],100%
same,Activity,Galleria mellonella,Non-toxic
same,survival at 48 h,[5],100%
same,survival at 24 h,[6],100%
same,survival at 72 h,[7],97%
same,MIC50,Escherichia coli,2.63 µM
same,MIC80,Escherichia coli,5.26 µM
same,MIC90,Escherichia coli,7.9 µM
same,survival at 72 h,[8],100%
same,survival at 24 h,[9],100%
same,survival at 72 h,[10],100%
same,survival at 48 h,[11],97%
same,survival at 48 h,[12],100%
same,MIC50,Staphylococcus aureus [1],3.95 µM
same,MIC80,Staphylococcus aureus [1],7.9 µM
same,MIC90,Staphylococcus aureus [1],10.5 µM
same,MIC,Pseudomonas aeruginosa,inactive
same,survival at 72 h,[13],100%
same,survival at 24 h,[14],100%
same,survival at 24 h,[15],100%
same,survival at 48 h,[16],100%
same,survival at 72 h,[17],100%
CCC1CN2CCC1C[C@@H]2[C@@H](Oc1nc(-c2ccccc2)nc(O[C@@H](c2ccnc3ccc(OC)cc23)[C@H]2CC3CCN2CC3CC)c1-c1ccccc1)c1ccnc2ccc(OC)cc12 (some centres undefined),MIC90,Escherichia coli,> 200 µM
same,MIC90,Staphylococcus aureus [1],> 200 µM
same,MIC,Pseudomonas aeruginosa,inactive
CN(C)CCNC(=S)Nc1cc(C(F)(F)F)cc(C(F)(F)F)c1,MIC,Escherichia coli,inactive
same,MIC,Staphylococcus aureus [1],inactive
same,MIC,Pseudomonas aeruginosa,inactive
CN(C)[C@@H]1CCCC[C@H]1NC(=S)Nc1cc(C(F)(F)F)cc(C(F)(F)F)c1,MIC50,Staphylococcus aureus [2],21.5 µM
same,MIC90,Staphylococcus aureus [2],32.2 µM
same,MIC50,Escherichia coli,23.8 µM
same,MIC80,Escherichia coli,90.8 µM
same,MIC90,Escherichia coli,120 µM
same,MIC80,Staphylococcus aureus [1],90.8 µM
same,MIC,Pseudomonas aeruginosa,inactive
COC(=O)[C@@H]1C[C@H](NC(=S)Nc2cc(C(F)(F)F)cc(C(F)(F)F)c2)CN1,MIC90,Escherichia coli,> 200 µM
same,MIC90,Staphylococcus aureus [1],> 200 µM
same,MIC,Pseudomonas aeruginosa,inactive
